Data on 10 compounds can be found in ChEMBL document CHEMBL4433235, “Discovery of piperazic acid peptide deformylase inhibitors with in vivo activity for respiratory tract and skin infections” (Bioorg Med Chem Lett, 2019).

The test system of data set [1] is Streptococcus pneumoniae. In words: Antimicrobial activity against Streptococcus pneumoniae 1629. Type of data set: functional.
Data set [2] in a line: Inhibition of Streptococcus pneumoniae PDF by fluorescence detection assay.
Data set [3] in a line: Inhibition of Haemophilus influenzae PDF by fluorescence detection assay.
The nature of data set [4]: Solubility of compound by chemiluminescent nitrogen detection assay. In kind it is physicochemical.
Data set [5] deals with Staphylococcus aureus. Put plainly: Antimicrobial activity against Staphylococcus aureus Oxford. Type of data set: functional.
Data set [6] can be described thus: Chromatographic hydrophobicity index, log D of compound at pH 7.4. The settings on record: buffer. Type of data set: physicochemical.
For data set [7], the target named is T1, Peptide deformylase (Staphylococcus aureus, UniProt P68826).
T1 sequence (P68826 whole entry): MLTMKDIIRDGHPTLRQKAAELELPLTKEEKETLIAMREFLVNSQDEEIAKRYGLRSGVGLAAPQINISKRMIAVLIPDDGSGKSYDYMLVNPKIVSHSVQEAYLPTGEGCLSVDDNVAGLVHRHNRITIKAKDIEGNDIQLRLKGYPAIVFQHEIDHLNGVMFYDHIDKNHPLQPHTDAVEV
In words: Inhibition of Staphylococcus aureus PDF by fluorescence detection assay.

Data set [8] concerns Haemophilus influenzae. Put plainly: Antimicrobial activity against Haemophilus influenzae Q1. Type of data set: functional.
Data set [9] concerns the target T2, Peptide deformylase (Escherichia coli, UniProt Q9JN24).
T2 sequence (Q9JN24 whole entry): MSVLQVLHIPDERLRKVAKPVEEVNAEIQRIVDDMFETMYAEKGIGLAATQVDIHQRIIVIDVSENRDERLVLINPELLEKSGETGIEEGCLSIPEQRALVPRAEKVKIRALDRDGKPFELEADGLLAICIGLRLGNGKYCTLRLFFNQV
In words: Inhibition of Escherichia coli PDF.

Data set [10] addresses T1, Peptide deformylase. In words: Inhibition of Staphylococcus aureus PDF by absorbance detection assay.
Data set [11] in a line: Inhibition of Streptococcus pneumoniae PDF by absorbance detection assay.
Data set [12] in a line: Half life in rat at 5 mg/kg, po. Type of data set: ADME, organism-based. The settings on record: in vivo.
A short description of data set [13]: AUC in rat at 5 mg/kg, po. Type of data set: ADME, organism-based. Particulars: in vivo.
A short description of data set [14]: Volume of distribution at steady state in rat at 3 mg/kg, iv. Type of data set: ADME, organism-based. Particulars: in vivo, read-out: Vdss.
A short description of data set [15]: Oral bioavailability in rat at 5 mg/kg. The settings on record: in vivo. Type of data set: ADME, organism-based.
A short description of data set [16]: Inhibition of Haemophilus influenzae PDF by absorbance detection assay.
Data set [17] can be described thus: Clearance in rat at 3 mg/kg, iv. In kind it is ADME, organism-based. Particulars: in vivo.
The subject of data set [18] is Staphylococcus aureus. Put plainly: Antimicrobial activity against Staphylococcus aureus. In kind it is functional.
Data set [19] is described as follows: Half life in rat at 3 mg/kg, iv. In kind it is ADME, organism-based. The settings on record: in vivo.
Data set [20] in a line: Cmax in rat at 5 mg/kg, po. In kind it is ADME, organism-based. Details: dose 5 mg/kg, route oral. The settings on record: in vivo.
Data set [21] concerns Haemophilus influenzae. Put plainly: Antimicrobial activity against Haemophilus influenzae. In kind it is functional.
Data set [22] deals with Streptococcus pneumoniae. Put plainly: Antimicrobial activity against Streptococcus pneumoniae. In kind it is functional.
A short description of data set [23]: AUC in rat at 3 mg/kg, iv. In kind it is ADME, organism-based. Particulars: in vivo.

The structures appear in SMILES notation. In brackets after ≈: the same amount, converted by molar mass.

Take `O=CN(O)C[C@@H](CC1CCCC1)C(=O)N1NCCC[C@H]1C(=O)Nc1cccc2c1COB2O`: the MIC in the data set with Streptococcus pneumoniae [1] is 8 µg/mL (≈ 17.5 µM); in the data set on Staphylococcus aureus [5] it was 2 µg/mL (≈ 4.36 µM); in the data set on Haemophilus influenzae [8], 0.5 µg/mL (≈ 1.09 µM). Further, the IC50 in data set [2] is 40 nM; in data set [3] it was 79 nM; against Peptide deformylase [7] it was 158 nM. Moreover, in [4], the solubility (kinetic) is greater than 544 µM. The compound also registered a CHI in data set [6] of 3.2.
As to `CN(C)c1cc(NC(=O)[C@@H]2CCCNN2C(=O)[C@H](CC2CCCC2)CN(O)C=O)ncn1`, the MIC worked out at 0.5 µg/mL (≈ 1.12 µM) with Streptococcus pneumoniae [1], 0.5 µg/mL (≈ 1.12 µM) with Staphylococcus aureus [5] and 2 µg/mL (≈ 4.47 µM) in the data set with Haemophilus influenzae [8]. In addition, the values for the IC50 (in [2]; in data set [3]; on Peptide deformylase [7]) were 0.3 nM, 13 nM and 1 nM, respectively. For the same compound, the kinetic solubility in data set [4] was greater than 649 µM. The compound also yielded a CHI in data set [6] of 3.38.
Turning to `CCC(=O)[C@@H](NC(=O)[C@@H]1CCCNN1C(=O)[C@@H](CC(=O)O)CC(C)C)C(C)C`, the inhibitory constant (Ki) on Peptide deformylase [9] came out at 60 nM.
With `Cc1nc(NC(=O)[C@@H]2CCCNN2C(=O)[C@H](CC2CCCC2)CN(O)C=O)sc1C`, the values for the MIC with Streptococcus pneumoniae [1], in the data set on Staphylococcus aureus [5] and in the data set with Haemophilus influenzae [8] were 1 µg/mL (≈ 2.29 µM), 0.25 µg/mL (≈ 0.571 µM) and 2 µg/mL (≈ 4.57 µM), respectively. For the same compound, the IC50 is 0.63 nM against Peptide deformylase [10], 0.2 nM in data set [11] and 1 nM in [16]. The half-life in [12] was 3.8 h; in data set [19], 1.1 h. For the same compound, the area under the curve (AUC) in [13] was found to be 700 ng·h/mL; in [23], 1030 ng·h/mL. Also, in data set [14], the Vd was 1.6 L/kg. In data set [15], this compound gave a bioavailability of 41%. This compound also had a kinetic solubility in data set [4] of 381 µM (≈ 167 µg/mL). Moreover, in data set [6], the CHI stood at 4.29. In data set [17], this compound had a clearance of 49 mL/min/kg. For the same compound, the MIC90 stood at 0.5 µg/mL (≈ 1.14 µM) in the data set on Staphylococcus aureus [18], 2 µg/mL (≈ 4.57 µM) in the data set with Haemophilus influenzae [21] and 0.5 µg/mL (≈ 1.14 µM) with Streptococcus pneumoniae [22]. Also, in [20], the Cmax stood at 349 ng/mL.
`CN(C)c1cccc(NC(=O)[C@@H]2CCCNN2C(=O)[C@H](CC2CCCC2)CN(O)C=O)n1`: the MIC worked out at 0.5 µg/mL (≈ 1.12 µM) against Streptococcus pneumoniae [1], 4 µg/mL (≈ 8.96 µM) against Staphylococcus aureus [5] and 4 µg/mL (≈ 8.96 µM) in the data set on Haemophilus influenzae [8]. Further, the IC50 in data set [2] came to 8 nM; in data set [3], 32 nM; on Peptide deformylase [7], 20 nM. In data set [4], this compound displayed a solubility (kinetic) greater than 364 µM. The compound also had a CHI in data set [6] of 4.88.
As to `O=CN(O)C[C@@H](CC1CCCC1)C(=O)N1NCCC[C@H]1C(=O)Nc1ccccc1`, the MIC with Streptococcus pneumoniae [1] turned out to be 2 µg/mL (≈ 4.97 µM); with Staphylococcus aureus [5], 4 µg/mL (≈ 9.94 µM); with Haemophilus influenzae [8], 1 µg/mL (≈ 2.48 µM). Besides, the figures for the IC50 (against Peptide deformylase [10]; in data set [11]; in data set [16]) were 5 nM, 1 nM and 2 nM, respectively. In data set [4], this compound returned a solubility (kinetic) greater than 534 µM. This compound registered a CHI in data set [6] of 4.82.
`CN(C(=O)[C@@H]1CCCNN1C(=O)[C@H](CC1CCCC1)CN(O)C=O)c1ccccn1`: the MIC in the data set on Streptococcus pneumoniae [1] amounted to 2 µg/mL (≈ 4.79 µM); with Staphylococcus aureus [5], 4 µg/mL (≈ 9.58 µM); with Haemophilus influenzae [8], 4 µg/mL (≈ 9.58 µM). The values for the IC50 (at Peptide deformylase [10]; in [11]; in [16]) were 18 nM, 8 nM and 15 nM, respectively. The kinetic solubility in data set [4] was greater than 657 µM. The compound also gave a CHI in [6] of 3.3.
With `O=CN(O)C[C@@H](CC1CCCC1)C(=O)N1NCCC[C@H]1C(=O)Nc1ccccn1`, the MIC came to 1 µg/mL (≈ 2.48 µM) with Streptococcus pneumoniae [1], 0.5 µg/mL (≈ 1.24 µM) against Staphylococcus aureus [5] and 0.5 µg/mL (≈ 1.24 µM) in the data set on Haemophilus influenzae [8]. The IC50 was found to be 2 nM on Peptide deformylase [10], 1 nM in data set [11] and 3 nM in data set [16]. This compound gave a solubility (kinetic) in data set [4] greater than 463 µM. Besides, the CHI in [6] is 3.71.
Regarding `Cc1cccnc1NC(=O)[C@@H]1CCCNN1C(=O)[C@H](CC1CCCC1)CN(O)C=O`, the results for the MIC against Streptococcus pneumoniae [1], in the data set on Staphylococcus aureus [5] and against Haemophilus influenzae [8] were 8 µg/mL (≈ 19.2 µM), 8 µg/mL (≈ 19.2 µM) and 2 µg/mL (≈ 4.79 µM), respectively. The values for the half-inhibitory concentration (IC50) (in [2]; in data set [3]; against Peptide deformylase [7]) were 10 nM, 79 nM and 16 nM, respectively. The compound also gave a solubility (kinetic) in data set [4] of 483 µM (≈ 202 µg/mL). The compound also came in with a CHI in data set [6] of 2.94.
As to `Cc1ccnc(NC(=O)[C@@H]2CCCNN2C(=O)[C@H](CC2CCCC2)CN(O)C=O)c1`, the MIC in the data set with Streptococcus pneumoniae [1] was 2 µg/mL (≈ 4.79 µM); in the data set with Staphylococcus aureus [5], 1 µg/mL (≈ 2.4 µM); against Haemophilus influenzae [8] it was 2 µg/mL (≈ 4.79 µM). Also, the IC50 in data set [2] is 0.4 nM; in data set [3] it was 40 nM; against Peptide deformylase [7], 2 nM. The solubility (kinetic) in data set [4] was greater than 565 µM. This compound returned a CHI in data set [6] of 4.05. Further, the MIC90 with Staphylococcus aureus [18] was 1 µg/mL (≈ 2.4 µM); in the data set on Haemophilus influenzae [21] it was 4 µg/mL (≈ 9.58 µM); with Streptococcus pneumoniae [22], 1 µg/mL (≈ 2.4 µM).
